These results are taken from patent publication US8288549B2, “Glycine B antagonist” (Merz Pharma GmbH & Co. KGaA, priority 2008, dated 2012).

The target of series [1] is T1, glycine binding pocket of the NMDA receptor (Rattus norvegicus, UniProt P35439).
T1 construct: The cortex is dissected out and processed as described by Parsons, et al; from tissue; host or cells: rat cerebral cortex membranes (male Sprague-Dawley)
Nature of the series: [3H]-MDL-105,519 displacement studies on rat cortical membranes. As to conditions: displacement of 2 nM [3H]-MDL-105,519, rat cortical membranes, 4° C., 1 h; read-out: NMDA-MDL 105519-r-CTX - IC50. The method, then:
[^3]MDL-105,519 Displacement Studies
For the evaluation of the binding affinity of the test compounds on the glycine binding pocket of the NMDA receptor, [^3H]-MDL-105,519 (GE Healthcare, Freiburg, Germany) displacement studies are performed using a 96-well plate robotic platform. MDL-105,519 (Baron et al., J Pharmacol Exp Ther 1996, 279(1), 62-68; Baron et al., European Journal of Pharmacology, 1997, 323(2-3), 181-192; Hoffner & Wanner, Neuroscience Letters, 1997, 226(2), 79-82) is a selective, high affinity antagonist at the NMDA receptor glycine site.
Tissue preparation is performed according to Foster & Wong (Br J Pharmacol, 1987, 91, 403-409) with some modifications. Anaesthetised male Sprague-Dawley rats (200-250 g, Janvier, Le Genest-Isle, France) are decapitated and their brains removed rapidly. The cortex is dissected out and processed as described by Parsons, et al. (J Pharmacol Exp Ther, 1997, 283(3), 1264-1275). For isolation of the cell membranes, the cortices are homogenized in 20 volumes of ice-cold 0.32 M sucrose (Sigma-Aldrich, Taufkirchen, Germany) using a glass-Teflon homogenizer. The homogenate is centrifuged at 1000×g for 10 minutes, the pellet is discarded and the supernatant centrifuged at 20,000×g for 20 minutes. The resulting pellet is re-suspended in 20 volumes of distilled water and centrifuged for 20 minutes at 8000×g. The supernatant and the buffy coat are then centrifuged three times (48,000×g for 20 minutes) in the presence of 50 mM Tris-HCl, pH 8.0 (assay buffer). All centrifugation steps are carried out at 4° C. After resuspension in 5 volumes of 50 mM Tris-HCl, pH 7.5, the membrane suspension is frozen rapidly at −80° C. On the day of assay, the membranes are thawed and washed four times by resuspension in 50 mM Tris-HCl, pH 7.5, and centrifugation at 48,000×g for 20 minutes. The final pellet is suspended in assay buffer. The amount of protein in the final membrane preparation is determined according to the method of Lowry, et al. (J. Biological Chemistry, 1951, 193, 256-275) with some modifications (Hartree, Analytical Biochemistry, 1972, 48, 422-427). The final protein concentration used for our studies is 400 μg/ml.
A robotic system designed for binding assays (Tecan Deutschland GmbH, Crailsheim, Germany) is loaded with the membrane solution, solutions for bound control (buffer/DMSO 20%), unlabeled glycine (1 mM) for evaluation of non-specific binding, all compounds to be tested (at 20-fold concentrations), radioligand and respective 96-well plates.
Before performing displacement studies, saturation experiments are performed to determine the equilibrium dissociation constant (Kd) of [^3H]-MDL-105,519, which is a parameter for the affinity of the radioligand to the binding site. The protein/receptor concentration is held constant whereas the amount of specific bound radioligand is determined using increasing concentrations of ligand.
On the basis of the saturation experiments, a final [^3H]-MDL-105,519 concentration of 2 nM is selected. Firstly, the assay plates are loaded with membrane solution and are shaken at 4° C. The mother plates are then prepared by pipetting the compounds (n=4) into assay buffer/20% DMSO to obtain the desired final concentrations. After transferring radioligand into the assay plates, the compounds are added (including the bound and the non-specific binding control). The final DMSO concentration is 1%. The assay plates are incubated and shaken at 4° C. for 1 h, before the mixture is exhausted as rapidly as possible via a vacuum manifold using the Multiscreen HTS glass fibre (type B) filter plates (Millipore, Schwalbach, Germany) under a constant vacuum of 450 mbar. The membranes are washed four times with cold assay buffer (100 μL). […]

Structures are written as SMILES.

Broadly, the IC50 is the concentration that gives 50% inhibition. One may read the melting point as the temperature of the solid-liquid transition.

As to `Cc1cc(Cl)cc2cc(C(=O)O)c(NC(Cc3c[nH]c4ccccc34)C(=O)O)nc12` (stereo not drawn) [Example 97, 2-[1-Carboxy-2-(1H-indol-3-yl)-ethylamino]-6-chloro-8-methylquinoline-3-carboxylic acid], the melting point is > 160 °C (dec.). Besides, in series [1], the IC50 was found to be 2490 nM.
With `O=C(O)c1cc2cc(Cl)ccc2nc1N[C@@H](Cc1cccs1)C(=O)O` [Example 156, 2-((S)-1-Carboxy-2-thiophen-2-yl-ethylamino)-6-chloro-quinoline-3-carboxylic acid], the melting point was > 250 °C (dec.). Besides, in series [1], the IC50 was 1910 nM.
With `O=C(O)c1cc2cc(Cl)ccc2nc1N[C@@H](Cc1ccc(Oc2ccnc3cc(Cl)ccc23)cc1)C(=O)O` [Example 142, 2-{(S)-1-Carboxy-2-[4-(7-chloro-quinolin-4-yloxy)-phenyl]-ethylamino}-6-chloro-quinoline-3-carboxylic acid], the IC50 in series [1] is 1440 nM.
`O=C(O)c1cc2cc(Cl)ccc2nc1N[C@@H](Cc1ccccc1)C(=O)O` [Example 1, 2-((S)-1-Carboxy-2-phenyl-ethylamino)-6-chloro-quinoline-3-carboxylic acid]: the melting point lay within 153 to 159 °C. Moreover, the IC50 in series [1] is 410 nM.
For the molecule `O=C(O)c1cc2cc(Cl)ccc2nc1N[C@@H](Cc1ccc(Oc2nc3ccc(Cl)cc3cc2C(=O)O)cc1)C(=O)O` [Example 8, 2-{(S)-1-Carboxy-2-[4-(3-carboxy-6-chloroquinolin-2-yloxy)-phenyl]-ethylamino}-6-chloro-quinoline-3-carboxylic acid], the IC50 in series [1] amounted to 450 nM.
Still for that read-out and setting: the figure for `O=C(O)c1cc2cc(Cl)ccc2nc1N[C@@H](Cc1ccc(OCc2ccccc2)cc1)C(=O)O` [Example 22, 2-[(S)-2-(4-Benzyloxy-phenyl)-1-carboxy-ethylamino]-6-chloro-quinoline-3-carboxylic acid] is 2700 nM; for `O=C(O)c1cc2cc(Cl)ccc2nc1N[C@@H](CC1CCCCC1)C(=O)O` [Example 35, 2-((S)-1-Carboxy-2-cyclohexyl-ethylamino)-6-chloro-quinoline-3-carboxylic acid] it is 3300 nM; for `O=C(O)c1cc2cc(Cl)ccc2nc1N[C@@H](Cc1ccc(Oc2ccc3cc(Br)cnc3n2)cc1)C(=O)O` [Example 147, 2-{(S)-2-[4-(6-Bromo-[1,8]naphthyridin-2-yloxy)-phenyl]-1-carboxy-ethylamino}-6-chloro-quinoline-3-carboxylic acid] it is 290 nM.
On the same count and under the same terms, the value for `CC(c1ccccc1)C(Nc1nc2ccc(Cl)cc2cc1C(=O)O)C(=O)O` (stereo not drawn) [Example 31, erythro-2-(1-Carboxy-2-phenyl-propylamino)-6-chloro-quinoline-3-carboxylic acid] was 3370 nM.
Take `O=C(O)c1cc2cc(Cl)ccc2nc1N[C@@H](Cc1ccncc1)C(=O)O` [Example 55, 2-((S)-1-Carboxy-2-pyridin-4-yl-ethylamino)-6-chloro-quinoline-3-carboxylic acid]: the melting point is 155 to 158 °C (dec.). In series [1], the IC50 is 4390 nM.
As to `O=C(O)c1cc2cc(Cl)ccc2nc1N[C@@H](Cc1ccc(Oc2ccncc2Br)cc1)C(=O)O` [Example 144, 2-{(S)-2-[4-(3-Bromo-pyridin-4-yloxy)-phenyl]-1-carboxy-ethylamino}-6-chloro-quinoline-3-carboxylic acid], the IC50 in series [1] amounted to 840 nM.
Regarding `Cc1cc(Cl)cc2cc(C(=O)O)c(NC(Cc3ccccc3)C(=O)O)nc12` (stereo not drawn) [Example 95, 2-(1-Carboxy-2-phenyl-ethylamino)-6-chloro-8-methylquinoline-3-carboxylic acid], the melting point is > 145 °C (dec.). Besides, the IC50 in series [1] worked out at 2290 nM.
For `O=C(O)c1cc2cc(Cl)cc(Cl)c2nc1N[C@@H](Cc1c[nH]c2ccccc12)C(=O)O` [Example 155, 2-[(S)-1-Carboxy-2-(1H-indol-3-yl)-ethylamino]-6,8-dichloro-quinoline-3-carboxylic acid], the IC50 in series [1] came out at 1030 nM.
Consider `O=C(O)c1cc2cc(Cl)c(Cl)cc2nc1N[C@@H](Cc1ccccc1)C(=O)O` [Example 32, 2-((S)-1-Carboxy-2-phenyl-ethylamino)-6,7-dichloro-quinoline-3-carboxylic acid], for which the IC50 in series [1] came out at 5800 nM.
On to `O=C(O)c1cc2cc(Cl)ccc2nc1NC(Cc1ccc(Nc2ccnc3ccccc23)cc1)C(=O)O` (stereo not drawn) [Example 104, 2-{1-Carboxy-2-[4-(quinolin-4-ylamino)-phenyl]-ethylamino}-6-chloro-quinoline-3-carboxylic acid], for which the melting point is > 200 °C (dec.). Further, in series [1], the IC50 was 700 nM.
